# Reference: article PMC7403315, “Cyclic peptide FXII inhibitor provides safe anticoagulation in a thrombosis model and in artificial lungs” (Nature Communications, 2020)
# “And” between values parts separate entries of the source, which are not always exact repeats. Identical values can stand only once. Starred links: 1 amine or outer side, 2 acyl side, 3 side chain; linkers in the order of their positions; H or OH if unused. Positions of bridges follow the written chain, without caps; N, C: chain ends. Non-standard residues stand in square brackets, D forms with d. Residues, ends and D or L forms follow the SMILES beside them. TATA = O=C(CC[*:1])N1CN(C(=O)CC[*:2])CN(C(=O)CC[*:3])C1; Phe(4-F) = N[C@@H](Cc1ccc(F)cc1)C(=O)O; β3hR = N=C(N)NCCC[C@H](N)CC(=O)O
# What was measured:
# Assay in all cases: Specificity profiling, residual protease activity
# Format in all cases: biochemical
# [1] = target: T1, factor XIa (Homo sapiens, UniProt P03951)
# T1 construct: 1.5 nM, factor XIa (Innovative Research) 6 nM, plasma kallikrein (Innovative Research) 0.25; purchased Innovative Research
# T1 sequence (P03951 388-625 limits assumed): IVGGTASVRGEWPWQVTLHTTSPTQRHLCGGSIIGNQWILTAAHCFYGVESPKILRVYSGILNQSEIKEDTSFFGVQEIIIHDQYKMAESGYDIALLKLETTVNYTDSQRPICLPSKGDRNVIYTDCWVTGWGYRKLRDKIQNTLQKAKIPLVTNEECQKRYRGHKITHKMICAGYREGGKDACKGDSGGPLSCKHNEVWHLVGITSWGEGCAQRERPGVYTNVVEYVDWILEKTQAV
# T1 sequence (P03951 19-387 limits assumed): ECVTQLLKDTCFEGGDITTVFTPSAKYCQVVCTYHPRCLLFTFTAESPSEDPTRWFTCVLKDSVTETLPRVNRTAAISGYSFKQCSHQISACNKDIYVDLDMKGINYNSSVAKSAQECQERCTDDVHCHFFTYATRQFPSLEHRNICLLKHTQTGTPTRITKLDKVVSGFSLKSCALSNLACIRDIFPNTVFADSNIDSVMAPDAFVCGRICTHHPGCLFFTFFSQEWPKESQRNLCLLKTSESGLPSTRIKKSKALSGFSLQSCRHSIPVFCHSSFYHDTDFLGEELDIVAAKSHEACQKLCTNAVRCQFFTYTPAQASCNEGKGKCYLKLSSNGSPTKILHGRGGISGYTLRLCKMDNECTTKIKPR
# Description: (§1) Protease inhibition assays
# (§2) The inhibitory activity of peptides was determined by measuring the residual protease activity with a fluorogenic substrate. The assay was performed in buffer containing 10 mM Tris-Cl, pH […]
# (§3) 1% (v/v) DMSO in a volume of 150 µl. […]
# (§4) HFXIIAB) were used at final concentrations of 0.4 nM. The reaction was pipetted as follows: 50 µl of bicyclic peptide in assay buffer were added to 50 µl of FXIIa in assay buffer and incubated for 10 minutes at 25°C before 50 µl of 150 µM fluorogenic substrate in assay buffer were added to measure the residual protease activity with an Infinite M200Pro fluorescence plate reader (excitation at 368 nm, emission at 467 nm; Tecan) for a period of 30 minutes with a read every minute at 25°C. The Tecan software i-control (version 1.1) was used for data analysis. Stock solutions of 1 mM bicyclic peptide were prepared by either dissolving the unpurified cyclization reaction with water or by dissolving purified and lyophilized peptide in water. The bicyclic peptides were serially diluted two-fold using assay buffer. Sigmoidal curves were fitted to the data using the following dose response equation (1), wherein x = peptide concentration, y = % protease activity, and p = Hill slope. IC50 values were derived from the fitted curve.
# (§5) The inhibition constants (Ki) were calculated according to the equation of Cheng and Prusoff, Ki = IC50/(1+([S]0/Km), wherein IC50 is the functional strength of the inhibitor, [S]0 is the total substrate concentration, and Km is the Michaelis-Menten constant. […]
# (§6) For testing the specificity of the bicyclic peptides, the following final concentrations of human serine proteases were used: tPA (Molecular Innovations) 7.5 nM, uPA (Molecular Innovations) 1.5 nM, factor XIa (Innovative Research) 6 nM, plasma kallikrein (Innovative Research) 0.25 nM, thrombin (Molecular Innovations) 1 nM, plasmin (Molecular Innovations) 2.5 nM, trypsin (Molecular Innovations) 0.05 nM, factor VIIa (Haematologic Technologies) 50 nM, factor Xa […]
# (§7) (Haematologic Technologies) 6 nM, and activated protein C (APC) 5 nM. Two-fold dilutions of the peptide were prepared that ranged from 0.04 to 40 µM. The following fluorogenic substrates were used at a final concentration of 50 µM: Z-Phe-Arg-AMC (Bachem) for plasma kallikrein; Boc-Phe-Ser-Arg-AMC (Bachem) for factor XIa; Z-Gly-Gly-Arg-AMC (Bachem) for tPA, uPA, thrombin, and trypsin; H-D-Val-Leu-Lys-AMC (Bachem) for plasmin; and D-Phe-Pro-Arg-ANSNH-C4H9 (Haematologic Technologies) for FVIIa and FXa. For APC, the chromogenic substrate pyroGlu-Pro-Arg-pNA (S2366) was used at a concentration of 400 µM. […]
# [2] = target: T2, factor Xa (Homo sapiens, UniProt P00742)
# T2 construct: (Molecular Innovations) 0.05 nM, factor VIIa (Haematologic Technologies) 50 nM, factor Xa; purchased Haematologic Technologies
# T2 sequence (P00742 235-488 limits assumed): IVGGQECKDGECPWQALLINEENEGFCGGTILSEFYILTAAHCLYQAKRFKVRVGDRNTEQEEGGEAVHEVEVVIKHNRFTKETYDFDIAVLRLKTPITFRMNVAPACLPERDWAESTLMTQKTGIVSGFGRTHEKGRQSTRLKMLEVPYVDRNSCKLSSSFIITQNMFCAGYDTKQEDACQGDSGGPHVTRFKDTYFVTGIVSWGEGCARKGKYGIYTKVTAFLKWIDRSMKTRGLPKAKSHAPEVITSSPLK
# T2 sequence (P00742 41-179 limits assumed): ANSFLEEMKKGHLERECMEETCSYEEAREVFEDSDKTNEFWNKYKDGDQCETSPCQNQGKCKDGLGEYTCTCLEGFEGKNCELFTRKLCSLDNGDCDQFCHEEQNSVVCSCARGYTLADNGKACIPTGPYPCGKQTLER
# Description: as §1, §2, §3, §4, §5, §6, §7
# [3] = target: T3, plasma kallikrein (Homo sapiens, UniProt P03952)
# T3 construct: 1.5 nM, factor XIa (Innovative Research) 6 nM, plasma kallikrein (Innovative Research) 0.25; purchased Innovative Research
# T3 sequence (P03952 391-638 limits assumed): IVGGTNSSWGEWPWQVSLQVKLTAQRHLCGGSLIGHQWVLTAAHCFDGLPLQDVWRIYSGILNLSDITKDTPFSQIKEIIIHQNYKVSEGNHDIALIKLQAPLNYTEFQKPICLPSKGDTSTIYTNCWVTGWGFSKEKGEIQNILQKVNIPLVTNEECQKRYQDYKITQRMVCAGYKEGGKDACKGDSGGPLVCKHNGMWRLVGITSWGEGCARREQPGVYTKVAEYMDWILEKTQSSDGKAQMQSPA
# T3 sequence (P03952 20-390 limits assumed): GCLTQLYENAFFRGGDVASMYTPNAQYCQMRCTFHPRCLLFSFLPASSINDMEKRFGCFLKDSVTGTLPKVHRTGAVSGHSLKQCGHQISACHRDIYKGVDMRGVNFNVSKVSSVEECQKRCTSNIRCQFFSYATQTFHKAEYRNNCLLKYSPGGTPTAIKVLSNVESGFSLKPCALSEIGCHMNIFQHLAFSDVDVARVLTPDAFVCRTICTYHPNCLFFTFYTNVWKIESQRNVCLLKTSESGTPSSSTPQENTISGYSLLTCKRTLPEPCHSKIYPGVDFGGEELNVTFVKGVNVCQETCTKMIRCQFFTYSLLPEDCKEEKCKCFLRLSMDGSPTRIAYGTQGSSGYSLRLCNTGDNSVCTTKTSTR
# Description: as §1, §2, §3, §4, §5, §6, §7
# [4] = target: T4, tPA (Homo sapiens, UniProt P00750)
# T4 construct: purchased Molecular Innovations
# T4 sequence (P00750 36-562): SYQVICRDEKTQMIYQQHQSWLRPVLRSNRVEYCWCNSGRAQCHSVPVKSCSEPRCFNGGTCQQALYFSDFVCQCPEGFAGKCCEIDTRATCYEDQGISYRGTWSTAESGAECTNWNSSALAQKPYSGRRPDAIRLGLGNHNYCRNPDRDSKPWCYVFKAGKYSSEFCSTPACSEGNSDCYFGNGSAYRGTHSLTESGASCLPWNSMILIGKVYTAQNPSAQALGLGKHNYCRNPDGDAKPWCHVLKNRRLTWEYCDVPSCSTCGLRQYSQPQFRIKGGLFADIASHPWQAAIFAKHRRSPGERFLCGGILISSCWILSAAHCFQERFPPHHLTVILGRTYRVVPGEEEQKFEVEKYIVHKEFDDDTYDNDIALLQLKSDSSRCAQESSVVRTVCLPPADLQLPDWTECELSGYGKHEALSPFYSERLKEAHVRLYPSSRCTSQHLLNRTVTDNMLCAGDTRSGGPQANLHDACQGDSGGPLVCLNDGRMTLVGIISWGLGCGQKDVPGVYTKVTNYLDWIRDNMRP
# Description: as §1, §2, §3, §4, §5, §6, §7
# [5] = inhibitor 39.0625 nM, 0.0390625 µM
# [6] = inhibitor 78.125 nM, 0.078125 µM
# [7] = inhibitor 156.25 nM, 0.15625 µM
# [8] = inhibitor 40000 nM (40 µM), 40 µM
structure (smiles),measurement,setting,value
CC(C)C[C@@H]1NC(=O)[C@H](CCC(N)=O)NC(=O)[C@H](Cc2c[nH]cn2)NC(=O)[C@@H]2CSCCC(=O)N3CN(CN(C3)C(=O)CCSC[C@H](NC(=O)[C@@H](CO)NC(=O)[C@H](N)CCCNC(=N)N)C(=O)N[C@@H](Cc3ccc(F)cc3)C(=O)N[C@@H](CCCNC(=N)N)C(=O)N[C@@H](CC(C)C)C(=O)N3CCC[C@H]3C(=O)N2)C(=O)CCSC[C@@H](C(N)=O)NC(=O)C[C@H](CCCNC(=N)N)NC1=O [FXII900] (H-[dR][dS]C[Phe(4-F)]RLPCHQL[β3hR]C-NH2; linker 3-8-13 via TATA),Residual activity of FXIa,[1]; [5],100.642%
same,remaining activity at 0.0390625 µM,"[1]; inhibitor 39.0625 nM, read-out: Residual activity of FXIa",96.6%
same,Residual activity of FXIa,[1]; [6],103.852%
same,remaining activity at 0.078125 µM,"[1]; inhibitor 78.125 nM, read-out: Residual activity of FXIa",93.8%
same,Residual activity of FXIa,[1]; [7],98.179%
same,remaining activity at 0.15625 µM,"[1]; inhibitor 156.25 nM, read-out: Residual activity of FXIa",94.7%
same,Residual activity of FXIa,"[1]; inhibitor 312.5 nM, 0.3125 µM",98.2463%
same,remaining activity at 0.3125 µM,"[1]; inhibitor 312.5 nM, read-out: Residual activity of FXIa",97.5%
same,Residual activity of FXIa,"[1]; inhibitor 625 nM, 0.625 µM",97.4314%
same,remaining activity at 0.625 µM,"[1]; inhibitor 625 nM, read-out: Residual activity of FXIa",94.9%
same,Residual activity of FXIa,"[1]; inhibitor 1250 nM, 1.25 µM",98.4364%
same,remaining activity at 1.25 µM,"[1]; inhibitor 1250 nM, read-out: Residual activity of FXIa",94.1%
same,Residual activity of FXIa,"[1]; inhibitor 2500 nM, […]",98.6547%
same,remaining activity at […],"[1]; inhibitor 2500 nM, read-out: Residual activity of FXIa",91.5%
same,Residual activity of FXIa,"[1]; inhibitor 5000 nM, 5 µM",98.6945%
same,remaining activity at 5 µM,"[1]; inhibitor 5000 nM, read-out: Residual activity of FXIa",98.9%
same,Residual activity of FXIa,"[1]; inhibitor 10000 nM, 10 µM",99.1545%
same,remaining activity at 10 µM,"[1]; inhibitor 10000 nM, read-out: Residual activity of FXIa",97.3%
same,Residual activity of FXIa,"[1]; inhibitor 20000 nM, 20 µM",95.8964%
same,remaining activity at 20 µM,"[1]; inhibitor 20000 nM, read-out: Residual activity of FXIa",96.3%
same,Residual activity of FXIa,[1]; [8],95.5908% and 94.7249%
same,remaining activity at 40 µM,"[1]; inhibitor 40000 nM (40 µM), read-out: Residual activity of FXIa",95.1%
same,Ki,[1]; read-out: Ki FXIa,> 40 µM
same,Residual activity of FXa,[2]; [5],101.787%
same,remaining activity at 0.0390625 µM,"[2]; inhibitor 39.0625 nM, read-out: Residual activity of FXa",94.8%
same,Residual activity of FXa,[2]; [6],97.2913%
same,remaining activity at 0.078125 µM,"[2]; inhibitor 78.125 nM, read-out: Residual activity of FXa",93.4%
same,Residual activity of FXa,[2]; [7],100.804%
same,remaining activity at 0.15625 µM,"[2]; inhibitor 156.25 nM, read-out: Residual activity of FXa",97.6%
same,Residual activity of FXa,"[2]; inhibitor 312.5 nM, 0.3125 µM",95.4335%
same,remaining activity at 0.3125 µM,"[2]; inhibitor 312.5 nM, read-out: Residual activity of FXa",95.1%
same,Residual activity of FXa,"[2]; inhibitor 625 nM, 0.625 µM",101.673%
same,remaining activity at 0.625 µM,"[2]; inhibitor 625 nM, read-out: Residual activity of FXa",97.6%
same,Residual activity of FXa,"[2]; inhibitor 1250 nM, 1.25 µM",99.2096%
same,remaining activity at 1.25 µM,"[2]; inhibitor 1250 nM, read-out: Residual activity of FXa",99.4%
same,Residual activity of FXa,"[2]; inhibitor 2500 nM, […]",104.071%
same,remaining activity at […],"[2]; inhibitor 2500 nM, read-out: Residual activity of FXa",98.3%
same,Residual activity of FXa,"[2]; inhibitor 5000 nM, 5 µM",101.691%
same,remaining activity at 5 µM,"[2]; inhibitor 5000 nM, read-out: Residual activity of FXa",94.7%
same,Residual activity of FXa,"[2]; inhibitor 10000 nM, 10 µM",102.146%
same,remaining activity at 10 µM,"[2]; inhibitor 10000 nM, read-out: Residual activity of FXa",99.4%
same,Residual activity of FXa,"[2]; inhibitor 20000 nM, 20 µM",104.386%
same,remaining activity at 20 µM,"[2]; inhibitor 20000 nM, read-out: Residual activity of FXa",94.7%
same,Residual activity of FXa,[2]; [8],96.1187% and 97.9911%
same,remaining activity at 40 µM,"[2]; inhibitor 40000 nM (40 µM), read-out: Residual activity of FXa",97.1%
same,Ki,[2]; read-out: Ki FXa,> 40 µM
same,Ki,[3],> 40 µM
same,remaining activity at 0.0390625 µM,[3]; inhibitor 39.0625 nM,98.1%
same,Residual activity of Plasma kallikrein,[3]; [5],100.436%
same,remaining activity at 0.078125 µM,[3]; inhibitor 78.125 nM,98.4%
same,Residual activity of Plasma kallikrein,[3]; [6],99.938%
same,remaining activity at 0.15625 µM,[3]; inhibitor 156.25 nM,98.9%
same,Residual activity of Plasma kallikrein,[3]; [7],99.0018%
same,remaining activity at 0.3125 µM,[3]; inhibitor 312.5 nM,102%
same,Residual activity of Plasma kallikrein,"[3]; inhibitor 312.5 nM, 0.3125 µM",98.8676%
same,remaining activity at 0.625 µM,[3]; inhibitor 625 nM,101%
same,Residual activity of Plasma kallikrein,"[3]; inhibitor 625 nM, 0.625 µM",98.0454%
same,remaining activity at 1.25 µM,[3]; inhibitor 1250 nM,101%
same,Residual activity of Plasma kallikrein,"[3]; inhibitor 1250 nM, 1.25 µM",97.0056%
same,remaining activity at […],[3]; inhibitor 2500 nM,96%
same,Residual activity of Plasma kallikrein,"[3]; inhibitor 2500 nM, […]",95.4747%
same,remaining activity at 5 µM,[3]; inhibitor 5000 nM,92.8%
same,Residual activity of Plasma kallikrein,"[3]; inhibitor 5000 nM, 5 µM",93.0245%
same,remaining activity at 10 µM,[3]; inhibitor 10000 nM,91.9%
same,Residual activity of Plasma kallikrein,"[3]; inhibitor 10000 nM, 10 µM",91.0418%
same,remaining activity at 20 µM,[3]; inhibitor 20000 nM,84.1%
same,Residual activity of Plasma kallikrein,"[3]; inhibitor 20000 nM, 20 µM",81.6415%
same,remaining activity at 40 µM,[3]; inhibitor 40000 nM (40 µM),72%
same,Residual activity of Plasma kallikrein,[3]; [8],73.9098% and 69.1761%
same,Ki,[4],> 40 µM
same,remaining activity at 0.0390625 µM,[4]; inhibitor 39.0625 nM,95.1%
same,Residual activity of tPa,[4]; [5],93.3208%
same,remaining activity at 0.078125 µM,[4]; inhibitor 78.125 nM,95.9%
same,Residual activity of tPa,[4]; [6],101.687%
same,remaining activity at 0.15625 µM,[4]; inhibitor 156.25 nM,98.8%
same,Residual activity of tPa,[4]; [7],101.694%
same,remaining activity at 0.3125 µM,[4]; inhibitor 312.5 nM,97.2%
same,Residual activity of tPa,"[4]; inhibitor 312.5 nM, 0.3125 µM",101.741%
same,remaining activity at 0.625 µM,[4]; inhibitor 625 nM,95%
same,Residual activity of tPa,"[4]; inhibitor 625 nM, 0.625 µM",94.8368%
same,remaining activity at 1.25 µM,[4]; inhibitor 1250 nM,101%
same,Residual activity of tPa,"[4]; inhibitor 1250 nM, 1.25 µM",102.859%
same,remaining activity at […],[4]; inhibitor 2500 nM,100%
same,Residual activity of tPa,"[4]; inhibitor 2500 nM, […]",101.452%
same,remaining activity at 5 µM,[4]; inhibitor 5000 nM,87.2%
same,Residual activity of tPa,"[4]; inhibitor 5000 nM, 5 µM",93.856%
same,Residual activity of tPa,"[4]; inhibitor 10000 nM, 10 µM",102.407% and 77.7753%
same,remaining activity at 20 µM,[4]; inhibitor 20000 nM,89.2%
same,Residual activity of tPa,"[4]; inhibitor 20000 nM, 20 µM",97.2498%
same,remaining activity at 40 µM,[4]; inhibitor 40000 nM (40 µM),97%
same,Residual activity of tPa,[4]; [8],94.4809% and 101.833%
